From US11795204B2 (Zealand Pharma A/S, priority 2012, dated 2023)
Square brackets hold non-standard residues; d marks the D form. Peptide text beside a SMILES is read from it. Dap = NC[C@H](N)C(=O)O; Aib = CC(C)(N)C(=O)O

Tests used:
human Glucagon-R = target: T1, human Glucagon-R (Homo sapiens, UniProt P47871); assay: Glucagon receptor assay (cAMP induction, AlphaScreen); format: cell-based; details: HEK293 cells expressing the human Glucagon-R, 15 min at 37° C., read-out: GCG-R EC50 in vitro
T1 construct: expressed in transfected cells
T1 sequence (P47871 26-477): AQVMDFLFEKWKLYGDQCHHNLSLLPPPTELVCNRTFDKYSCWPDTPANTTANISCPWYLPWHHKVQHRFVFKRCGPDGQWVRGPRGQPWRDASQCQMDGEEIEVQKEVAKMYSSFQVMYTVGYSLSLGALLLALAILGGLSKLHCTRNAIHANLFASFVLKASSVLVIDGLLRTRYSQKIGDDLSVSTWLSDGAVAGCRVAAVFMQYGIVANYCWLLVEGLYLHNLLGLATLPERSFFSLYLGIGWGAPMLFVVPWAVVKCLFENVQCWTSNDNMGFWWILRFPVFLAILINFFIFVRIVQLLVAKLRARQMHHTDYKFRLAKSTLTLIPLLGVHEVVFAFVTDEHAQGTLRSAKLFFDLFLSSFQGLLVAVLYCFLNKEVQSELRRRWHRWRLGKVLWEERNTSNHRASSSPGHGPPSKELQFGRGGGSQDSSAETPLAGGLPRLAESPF
Procedure: The 5′-end primers additionally encoded a near-Kozak consensus sequence to ensure efficient translation. […] 48 hr after transfection, cells were seeded for limited dilution cloning and selected with 1 mg/ml G418 in the culture medium.
On the day of analysis, growth medium was removed and the cells were washed once with […] of the included Assay buffer with IBMX. Cells were incubated in […] Assay buffer/IBMX containing increasing concentrations of test peptides for 15 min at 37° C. Then the peptides/Assay buffer was removed and cells were lysed by addition of […] Lysis buffer pr. well and incubation for at least 10 min at room temperature. From each well […] cell lysate was transferred to a 384-well OptiPlate and mixed with Donor and Acceptor beads and incubated for 1 h at room temperature. The cAMP content was measured on an Envision plate reader.

physchem = details: pH 7.5
Procedure: A stock solution of the test peptide (2 mg/ml; determined by measurement of the absorption of the solution at 280 nm, and using the theoretical extension coefficient based on the content of tryptophan and tyrosine in the peptide) in demineralized water adjusted to pH 2.5 with HCl was prepared, and aliquots were diluted 1:1 in 100 mM acetate buffer (pH 4.0) and 100 mM phosphate buffer (pH 7.5), respectively, and loaded in a standard flat-bottom, non-sterile 96-well UV Microplate. The absorbance of samples (single samples, n=1) at 280 and 325 nm was measured in an absorbance-based plate reader, which was preheated to ambient temperature.

Molecule	EC50 (human Glucagon-R) [nM]	solubility (physchem) [µg/mL]
H-HSQGTFTSDYSKYLDEARAKSFVEWLEKT-OH [Compound 27]	0.063	≥ 1000
CC(C)C[C@H](NC(=O)[C@H](Cc1c[nH]c2ccccc12)NC(=O)[C@H](CCCCN)NC(=O)[C@@H](NC(=O)[C@H](Cc1ccccc1)NC(=O)[C@H](CCC(=O)O)NC(=O)[C@H](CCC(=O)O)NC(=O)[C@H](C)NC(=O)[C@H](CCCNC(=N)N)NC(=O)[C@H](C)NC(=O)C(C)(C)NC(=O)[C@H](CCC(=O)O)NC(=O)[C@H](CC(C)C)NC(=O)[C@H](Cc1ccc(O)cc1)NC(=O)[C@H](CCCCN)NC(=O)[C@H](CO)NC(=O)[C@H](Cc1ccc(O)cc1)NC(=O)[C@H](CC(=O)O)NC(=O)[C@H](CO)NC(=O)[C@@H](NC(=O)[C@H](Cc1ccccc1)NC(=O)[C@@H](NC(=O)CNC(=O)[C@H](CCC(N)=O)NC(=O)[C@H](CO)NC(=O)[C@@H](N)Cc1c[nH]cn1)[C@@H](C)O)[C@@H](C)O)C(C)C)C(=O)N[C@@H](CCC(=O)O)C(=O)N[C@@H](CO)C(=O)N[C@H](C(=O)O)[C@@H](C)O [Compound 37] (H-HSQGTFTSDYSKYLE[Aib]ARAEEFVKWLEST-OH)	0.094	≥ 1000
H-HSQGTFTSDYSKYLDSARAEDFVSWLEST-OH [Compound 10]	0.32	≥ 1000
CC(C)C[C@H](NC(=O)[C@H](Cc1c[nH]c2ccccc12)NC(=O)[C@H](CCCCN)NC(=O)[C@@H](NC(=O)[C@H](Cc1ccccc1)NC(=O)[C@H](CCC(=O)O)NC(=O)[C@H](CCC(=O)O)NC(=O)[C@H](C)NC(=O)[C@H](CCCNC(=N)N)NC(=O)[C@H](C)NC(=O)C(C)(C)NC(=O)[C@H](CC(=O)O)NC(=O)[C@H](CC(C)C)NC(=O)[C@H](Cc1ccc(O)cc1)NC(=O)[C@H](CCCCN)NC(=O)[C@H](CO)NC(=O)[C@H](Cc1ccc(O)cc1)NC(=O)[C@H](CC(=O)O)NC(=O)[C@H](CO)NC(=O)[C@@H](NC(=O)[C@H](Cc1ccccc1)NC(=O)[C@@H](NC(=O)CNC(=O)[C@H](CCC(N)=O)NC(=O)[C@H](CO)NC(=O)[C@@H](N)Cc1c[nH]cn1)[C@@H](C)O)[C@@H](C)O)C(C)C)C(=O)N[C@@H](CCC(=O)O)C(=O)N[C@@H](CCC(=O)O)C(=O)N[C@H](C(=O)O)[C@@H](C)O [Compound 36] (H-HSQGTFTSDYSKYLD[Aib]ARAEEFVKWLEET-OH)	0.01	≥ 1000
H-HSQGTFTSDYSKYLDKRRAEDFVSWLEST-OH [Compound 18]	0.026	≥ 1000
CC(=O)NC[C@H](NC(=O)[C@H](CO)NC(=O)[C@@H](N)Cc1c[nH]cn1)C(=O)NCC(=O)N[C@H](C(=O)N[C@@H](Cc1ccccc1)C(=O)N[C@H](C(=O)N[C@@H](CO)C(=O)N[C@@H](CC(=O)O)C(=O)N[C@@H](Cc1ccc(O)cc1)C(=O)N[C@@H](CO)C(=O)N[C@@H](CCCCN)C(=O)N[C@@H](Cc1ccc(O)cc1)C(=O)N[C@@H](CC(C)C)C(=O)N[C@@H](CC(=O)O)C(=O)NC(C)(C)C(=O)N[C@@H](C)C(=O)N[C@@H](CCCNC(=N)N)C(=O)N[C@@H](C)C(=O)N[C@@H](CCC(=O)O)C(=O)N[C@@H](CCC(=O)O)C(=O)N[C@@H](Cc1ccccc1)C(=O)N[C@H](C(=O)N[C@@H](CCCCN)C(=O)N[C@@H](Cc1c[nH]c2ccccc12)C(=O)N[C@@H](CC(C)C)C(=O)N[C@@H](CCC(=O)O)C(=O)N[C@@H](CO)C(=O)N[C@H](C(N)=O)[C@@H](C)O)C(C)C)[C@@H](C)O)[C@@H](C)O [Compound 41] (H-HS[Dap](Ac)GTFTSDYSKYLD[Aib]ARAEEFVKWLEST-NH2)	0.0038	≥ 1000
CC(C)C[C@H](NC(=O)[C@H](Cc1c[nH]c2ccccc12)NC(=O)[C@H](CCCCN)NC(=O)[C@@H](NC(=O)[C@H](Cc1ccccc1)NC(=O)[C@H](CCC(=O)O)NC(=O)[C@H](CCC(=O)O)NC(=O)[C@H](C)NC(=O)[C@H](CCCNC(=N)N)NC(=O)[C@H](C)NC(=O)C(C)(C)NC(=O)[C@H](CC(=O)O)NC(=O)[C@H](CC(C)C)NC(=O)[C@H](Cc1ccc(O)cc1)NC(=O)[C@H](CCCCN)NC(=O)[C@H](CO)NC(=O)[C@H](Cc1ccc(O)cc1)NC(=O)[C@H](CC(=O)O)NC(=O)[C@H](CO)NC(=O)[C@@H](NC(=O)[C@H](Cc1ccccc1)NC(=O)[C@@H](NC(=O)CNC(=O)[C@H](Cc1c[nH]cn1)NC(=O)[C@H](CO)NC(=O)[C@@H](N)Cc1c[nH]cn1)[C@@H](C)O)[C@@H](C)O)C(C)C)C(=O)N[C@@H](CCC(=O)O)C(=O)N[C@@H](CO)C(=O)N[C@H](C(N)=O)[C@@H](C)O [Compound 38] (H-HSHGTFTSDYSKYLD[Aib]ARAEEFVKWLEST-NH2)	0.0047	≥ 1000
H-HSQGTFTSDYSKYLESARAEDFVKWLEST-OH [Compound 8]	0.38	≥ 1000
H-HSQGTFTSDYSKYLDSARAESFVKWLEST-OH [Compound 1]	0.064	≥ 1000
H-HSQGTFTSDYSKYLDEARAKSFVEWLEST-OH [Compound 28]	0.035	≥ 1000
H-HSQGTFTSDYSKYLDSARAEDFVEWLEST-OH [Compound 6]	1	≥ 1000
CC(C)C[C@H](NC(=O)[C@H](Cc1c[nH]c2ccccc12)NC(=O)[C@H](CCCCN)NC(=O)[C@@H](NC(=O)[C@H](Cc1ccccc1)NC(=O)[C@H](CO)NC(=O)[C@H](CCC(=O)O)NC(=O)[C@H](C)NC(=O)[C@H](CCCNC(=N)N)NC(=O)[C@H](C)NC(=O)C(C)(C)NC(=O)[C@H](CC(=O)O)NC(=O)[C@H](CC(C)C)NC(=O)[C@H](Cc1ccc(O)cc1)NC(=O)[C@H](CCCCN)NC(=O)[C@H](CO)NC(=O)[C@@H](NC(=O)[C@H](CC(=O)O)NC(=O)[C@H](CO)NC(=O)[C@@H](NC(=O)[C@H](Cc1ccccc1)NC(=O)[C@@H](NC(=O)CNC(=O)[C@H](CCC(N)=O)NC(=O)[C@H](CO)NC(=O)[C@@H](N)Cc1c[nH]cn1)[C@@H](C)O)[C@@H](C)O)C(C)C)C(C)C)C(=O)N[C@@H](CCC(=O)O)C(=O)N[C@@H](CO)C(=O)N[C@H](C(=O)O)[C@@H](C)O [Compound 23] (H-HSQGTFTSDVSKYLD[Aib]ARAESFVKWLEST-OH)	0.16	≥ 1000
H-HSQGTFTSDYSRYLESARAEDFVKWLEST-OH [Compound 7]	0.93	≥ 1000
CC(C)C[C@H](NC(=O)[C@H](Cc1c[nH]c2ccccc12)NC(=O)[C@H](CCC(=O)O)NC(=O)[C@@H](NC(=O)[C@H](Cc1ccccc1)NC(=O)[C@H](CCCCN)NC(=O)[C@H](CCC(=O)O)NC(=O)[C@H](C)NC(=O)[C@H](CCCNC(=N)N)NC(=O)[C@H](C)NC(=O)C(C)(C)NC(=O)[C@H](CC(=O)O)NC(=O)[C@H](CC(C)C)NC(=O)[C@H](Cc1ccc(O)cc1)NC(=O)[C@H](CCCCN)NC(=O)[C@H](CO)NC(=O)[C@H](Cc1ccc(O)cc1)NC(=O)[C@H](CC(=O)O)NC(=O)[C@H](CO)NC(=O)[C@@H](NC(=O)[C@H](Cc1ccccc1)NC(=O)[C@@H](NC(=O)CNC(=O)[C@H](CCC(N)=O)NC(=O)[C@H](CO)NC(=O)[C@@H](N)Cc1c[nH]cn1)[C@@H](C)O)[C@@H](C)O)C(C)C)C(=O)N[C@@H](CCC(=O)O)C(=O)N[C@@H](CO)C(=O)N[C@H](C(=O)O)[C@@H](C)O [Compound 34] (H-HSQGTFTSDYSKYLD[Aib]ARAEKFVEWLEST-OH)	0.028	≥ 1000
H-HSQGTFTSDYSKYLDVARAESFVKWLEST-OH [Compound 19]	0.054	≥ 1000
